According to PubChem BioAssay (NCI):
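Assay format: 96-well plates, 48-hour exposure. TGI denotes the concentration required for complete inhibition of growth.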

What was measured:
Test in all cases: DTP human tumour cell line panel, 48 h
[1] = tested on: A549 NSCLC
[2] = tested on: CCRF-CEM leukemia
[3] = tested on: HCT-15 colon
[4] = tested on: HT29 colon
[5] = tested on: KM12 colon
[6] = tested on: OVCAR-3 ovarian
[7] = tested on: RPMI-8226 leukemia
[8] = tested on: RXF 393 renal
[9] = tested on: U251 CNS
[10] = tested on: UO-31 renal

Cc1cccc(C2ON=C(c3ccccc3)N2C23CC4CC(CC(C4)C2)C3)c1 (stereo not drawn)
TGI [1]: > 10 µM | TGI [2]: > 10 µM | TGI [3]: > 10 µM | TGI [4]: > 10 µM | TGI [5]: > 10 µM | TGI [6]: > 10 µM | TGI [7]: > 10 µM | TGI [8]: > 10 µM | TGI [9]: > 10 µM

CCOC1OC(CO)C(O)CC1n1ccc(=O)[nH]c1=O (stereo not drawn)
TGI [1]: > 100 µM | TGI [3]: > 100 µM | TGI [4]: > 100 µM | TGI [5]: > 100 µM | TGI [6]: > 100 µM | TGI [7]: > 100 µM | TGI [8]: > 100 µM | TGI [9]: > 100 µM | TGI [10]: > 100 µM

CC1(C)OP(=O)(c2ccccc2)C=C1Sc1ccc([N+](=O)[O-])cc1[N+](=O)[O-] (stereo not drawn)
TGI [1]: > 100 µM | TGI [3]: > 100 µM | TGI [4]: > 100 µM | TGI [5]: > 100 µM | TGI [6]: > 100 µM | TGI [9]: > 100 µM

Cn1c(=O)c2[nH]c(N=O)nc2n(C)c1=O
TGI [1]: > 100 µM | TGI [3]: > 100 µM | TGI [4]: > 100 µM | TGI [5]: > 100 µM | TGI [6]: > 100 µM | TGI [7]: > 100 µM | TGI [8]: > 100 µM | TGI [9]: > 100 µM | TGI [10]: > 100 µM

CC(C)OC(=O)c1ccc(NCc2cc(O)ccc2O)cc1
TGI [1]: > 67.8 µM | TGI [2]: > 100 µM | TGI [3]: 9.21 µM | TGI [4]: 31.5 µM | TGI [5]: 12.5 µM | TGI [6]: 4.71 µM | TGI [8]: 5.79 µM | TGI [9]: 17.1 µM | TGI [10]: 2.91 µM

C#CC[C@@H]1C(=O)N(Cc2ccc(OC)cc2)[C@@H](C(C)C)C(=O)N1Cc1ccc(OC)cc1
TGI [1]: > 100 µM | TGI [2]: 36.2 µM | TGI [3]: > 100 µM | TGI [4]: 55.1 µM | TGI [5]: > 100 µM | TGI [6]: > 100 µM | TGI [8]: 25.6 µM | TGI [9]: > 100 µM | TGI [10]: > 100 µM

COc1ccc2[nH]c3c(c2c1)[C@H](c1ccccc1)C[C@@H]1C(=O)N(c2ccccc2)C(=O)[C@H]31
TGI [1]: 35.8 µM | TGI [2]: 95.2 µM | TGI [3]: > 100 µM | TGI [5]: 43.6 µM | TGI [6]: 45.6 µM | TGI [8]: 36.1 µM | TGI [9]: 38.3 µM | TGI [10]: 52.3 µM

CO/C(N)=C(\C#N)N=Cc1ccc2ccccc2c1
TGI [1]: > 100 µM | TGI [2]: > 100 µM | TGI [4]: > 100 µM | TGI [5]: > 100 µM | TGI [6]: > 100 µM | TGI [7]: > 100 µM | TGI [8]: > 100 µM | TGI [9]: > 100 µM | TGI [10]: > 100 µM

CC1=CC2C(C=C1)S(=O)(=O)N1CC21c1ccccc1 (stereo not drawn)
TGI [1]: > 100 µM | TGI [2]: > 100 µM | TGI [3]: > 100 µM | TGI [4]: > 100 µM | TGI [5]: > 100 µM | TGI [6]: > 100 µM | TGI [7]: > 100 µM | TGI [9]: > 100 µM | TGI [10]: > 100 µM

COc1ccc(C2=Nc3c(nc(OC)[nH]c3=O)NC(c3ccccc3)C2)cc1 (stereo not drawn)
TGI [1]: > 100 µM | TGI [2]: > 100 µM | TGI [4]: > 100 µM | TGI [5]: 36.3 µM | TGI [6]: > 100 µM | TGI [7]: 91.5 µM | TGI [8]: 63.9 µM | TGI [9]: 65.6 µM | TGI [10]: > 100 µM

CSc1ncnc2c1cnn2Cc1cnnn1COCC(O)CO (stereo not drawn)
TGI [1]: > 100 µM | TGI [2]: > 100 µM | TGI [3]: > 100 µM | TGI [4]: > 100 µM | TGI [5]: > 100 µM | TGI [6]: > 100 µM | TGI [7]: > 100 µM | TGI [9]: > 100 µM | TGI [10]: > 100 µM

FC(F)(F)c1ccc(C2ON=C(c3ccccc3)N2C23CC4CC(CC(C4)C2)C3)cc1 (stereo not drawn)
TGI [1]: > 10 µM | TGI [2]: > 10 µM | TGI [3]: > 10 µM | TGI [4]: > 10 µM | TGI [5]: > 10 µM | TGI [6]: > 10 µM | TGI [7]: > 10 µM | TGI [8]: > 10 µM | TGI [9]: > 10 µM

O=C/C(=C1/C=Cc2cc([N+](=O)[O-])ccc2S1)c1ccccc1
TGI [1]: > 100 µM | TGI [2]: > 100 µM | TGI [3]: > 100 µM | TGI [4]: > 100 µM | TGI [6]: > 100 µM | TGI [7]: > 100 µM | TGI [8]: > 100 µM | TGI [9]: > 100 µM | TGI [10]: > 100 µM

N#CC(NNC(=O)Cc1ccccc1)c1cccc(O)c1 (stereo not drawn)
TGI [1]: > 100 µM | TGI [2]: > 100 µM | TGI [3]: > 100 µM | TGI [4]: > 100 µM | TGI [5]: > 100 µM | TGI [7]: > 100 µM | TGI [8]: > 100 µM | TGI [9]: > 100 µM | TGI [10]: > 100 µM

CCOC(=O)c1c2ccc(/C=C/c3ccccn3)ccc-2c(C(=O)OCC)c1N
TGI [1]: > 100 µM | TGI [2]: > 100 µM | TGI [3]: > 100 µM | TGI [4]: > 100 µM | TGI [5]: > 100 µM | TGI [6]: > 100 µM | TGI [8]: > 100 µM | TGI [10]: > 100 µM

O=Cc1c[nH]c2c(=O)[nH]cnc12
TGI [1]: > 100 µM | TGI [2]: > 100 µM | TGI [3]: > 100 µM | TGI [4]: > 100 µM | TGI [5]: > 100 µM | TGI [6]: > 100 µM | TGI [7]: > 100 µM | TGI [8]: > 100 µM | TGI [10]: > 100 µM

Cc1cc2ncn(-c3nc4ccccc4nc3C(C#N)S(C)(=O)=O)c2cc1C (stereo not drawn)
TGI [1]: > 100 µM | TGI [2]: > 100 µM | TGI [3]: > 100 µM | TGI [5]: > 100 µM | TGI [6]: > 100 µM | TGI [7]: > 100 µM | TGI [9]: > 100 µM | TGI [10]: > 100 µM

O=C(O)c1nc2ccccc2nc1Nc1ccc(Cl)c(Cl)c1
TGI [1]: > 100 µM | TGI [2]: > 100 µM | TGI [3]: 36.1 µM | TGI [5]: 54 µM | TGI [6]: 37.2 µM | TGI [7]: > 100 µM | TGI [8]: 69.3 µM | TGI [9]: > 100 µM | TGI [10]: 33.6 µM

O[C@]12C=C(c3nccc4c3[nH]c3ccccc34)[C@@H]3CCN(CCCC/C=C\CC1)C[C@@]31CC3/C=C\CCCCN3[C@H]12 (stereo partly drawn)
TGI [1]: 11.2 µM | TGI [2]: > 29.6 µM | TGI [3]: 1.02 µM | TGI [4]: 1.36 µM | TGI [5]: 1.3 µM | TGI [6]: 1.55 µM | TGI [9]: 1.79 µM | TGI [10]: 0.463 µM

Nc1nc(NNc2cccc(F)c2)cc(=O)[nH]1
TGI [1]: > 100 µM | TGI [2]: > 100 µM | TGI [3]: > 100 µM | TGI [4]: 54.6 µM | TGI [5]: 56.8 µM | TGI [6]: 51.5 µM | TGI [7]: > 100 µM | TGI [9]: 42.9 µM | TGI [10]: > 100 µM

Nc1nc2c(N)cc(C(F)(F)F)cc2nc1-c1ccccc1
TGI [1]: > 100 µM | TGI [2]: > 100 µM | TGI [3]: > 100 µM | TGI [5]: > 100 µM | TGI [6]: > 100 µM | TGI [8]: > 100 µM | TGI [9]: > 100 µM | TGI [10]: > 100 µM

CSc1nc(=S)[nH]c2c1c(C)nn2-c1ccccc1
TGI [1]: > 100 µM | TGI [2]: 49 µM | TGI [3]: > 100 µM | TGI [4]: > 100 µM | TGI [6]: > 100 µM | TGI [7]: 47.7 µM | TGI [8]: 94.1 µM | TGI [9]: > 100 µM | TGI [10]: 69.8 µM

CC(=O)OI1NC(=O)c2ccccc21
TGI [1]: > 100 µM | TGI [2]: > 100 µM | TGI [3]: > 100 µM | TGI [4]: > 100 µM | TGI [5]: > 100 µM | TGI [6]: > 100 µM | TGI [7]: > 100 µM | TGI [9]: > 100 µM | TGI [10]: > 100 µM

COC(=O)c1ccc2c(c1)CC1(C2)Cc2cc3c(cc2C1)CCC3
TGI [1]: > 100 µM | TGI [2]: > 100 µM | TGI [3]: > 100 µM | TGI [4]: > 100 µM | TGI [6]: > 100 µM | TGI [7]: > 100 µM | TGI [8]: > 100 µM | TGI [9]: > 100 µM | TGI [10]: > 100 µM
